PubChem BioAssay AID2060888 (Molecular Pharmacology Branch, DTP, NCI, 2025)

System: 695427-040-R-J1-PDC complex spheroid viability
Experiment: Anticancer human tumor 695427-040-R-J1-PDC patient-derived colon adenocarcinoma cell line growth inhibition [RAS]
Settings: for IC50: curve of first compound; for viability, T/C: stronger effect = lower value
How it was run: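 Tumour cells grown as complex spheroids with HUVEC endothelial cells and mesenchymal stem cells, treated with RAS pathway inhibitor combinations. Each agent spans half-log steps from near clinical Cmax, or 10 microM where Cmax is unknown.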

[1] = second compound 0.000949 µM, first compound 0.0316 µM
[2] = second compound 0.000949 µM, first compound 0.1 µM
[3] = second compound 0.000949 µM, first compound 0.316 µM
[4] = second compound 0.000949 µM, first compound 1 µM
[5] = second compound 0.000949 µM, first compound 3.16 µM
[6] = second compound 0.000949 µM, first compound 10 µM
[7] = second compound 0.003 µM, first compound 0.0316 µM
[8] = second compound 0.003 µM, first compound 0.1 µM
[9] = second compound 0.003 µM, first compound 0.316 µM
[10] = second compound 0.003 µM, first compound 1 µM
[11] = second compound 0.003 µM, first compound 3.16 µM
[12] = second compound 0.003 µM, first compound 10 µM
[13] = second compound 0.00949 µM, first compound 0.0316 µM
[14] = second compound 0.00949 µM, first compound 0.1 µM
[15] = second compound 0.00949 µM, first compound 0.316 µM
[16] = second compound 0.00949 µM, first compound 1 µM
[17] = second compound 0.00949 µM, first compound 3.16 µM
[18] = second compound 0.00949 µM, first compound 10 µM
[19] = second compound 0.03 µM, first compound 0.0316 µM
[20] = second compound 0.03 µM, first compound 0.1 µM
[21] = second compound 0.03 µM, first compound 0.316 µM
[22] = second compound 0.03 µM, first compound 1 µM
[23] = second compound 0.03 µM, first compound 3.16 µM
[24] = second compound 0.03 µM, first compound 10 µM
[25] = second compound 0.0949 µM, first compound 0.0316 µM
[26] = second compound 0.0949 µM, first compound 0.1 µM
[27] = second compound 0.0949 µM, first compound 0.316 µM
[28] = second compound 0.0949 µM, first compound 1 µM
[29] = second compound 0.0949 µM, first compound 3.16 µM
[30] = second compound 0.0949 µM, first compound 10 µM
[31] = second compound 0.3 µM, first compound 0.0316 µM
[32] = second compound 0.3 µM, first compound 0.1 µM
[33] = second compound 0.3 µM, first compound 0.316 µM
[34] = second compound 0.3 µM, first compound 1 µM
[35] = second compound 0.3 µM, first compound 3.16 µM
[36] = second compound 0.3 µM, first compound 10 µM
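Also: viability read after seven days of drug exposure.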
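For viability, T/C in this document: 100% = DMSO vehicle control viability.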

Structure (SMILES): CC1(O)CCCC1n1c(=O)c(C(F)F)cc2cnc(NC3CCN(S(C)(=O)=O)CC3)nc21 (centres undefined) + CCn1c(-c2cccnc2C(C)OC)c2c3cc(ccc31)N1CCOC(CC(NC(=O)C(C(C)C)N(C)C(=O)C3(F)CCN(C(=O)C#CC(C)(C)N(C)C)CC3)C(=O)N3CCCC(N3)C(=O)OCC(C)(C)C2)C1
- IC50 (second compound 0.000949 µM): > 10 µM
- IC50 (second compound 0.003 µM): > 10 µM
- IC50 (second compound 0.00949 µM): > 10 µM
- IC50 (second compound 0.03 µM): > 10 µM
- IC50 (second compound 0.0949 µM): > 10 µM
- IC50 (second compound 0.3 µM): 9.98 µM
- viability, T/C [1]: 102%
- viability, T/C [2]: 104%
- viability, T/C [3]: 90.7%
- viability, T/C [4]: 104%
- viability, T/C [5]: 93.1%
- viability, T/C [6]: 79.4%
- viability, T/C [7]: 102%
- viability, T/C [8]: 98.7%
- viability, T/C [9]: 95.9%
- viability, T/C [10]: 103%
- viability, T/C [11]: 125%
- viability, T/C [12]: 86.3%
- viability, T/C [13]: 108%
- viability, T/C [14]: 80.8%
- viability, T/C [15]: 97.5%
- viability, T/C [16]: 87.6%
- viability, T/C [17]: 124%
- viability, T/C [18]: 88.6%
- viability, T/C [19]: 90.2%
- viability, T/C [20]: 80%
- viability, T/C [21]: 81.3%
- viability, T/C [22]: 97.9%
- viability, T/C [23]: 115%
- viability, T/C [24]: 73.6%
- viability, T/C [25]: 77.3%
- viability, T/C [26]: 95.7%
- viability, T/C [27]: 89.4%
- viability, T/C [28]: 113%
- viability, T/C [29]: 124%
- viability, T/C [30]: 71.3%
- viability, T/C [31]: 77%
- viability, T/C [32]: 94%
- viability, T/C [33]: 85%
- viability, T/C [34]: 95.7%
- viability, T/C [35]: 95.9%
- viability, T/C [36]: 49.9%

Structure (SMILES): CCC(CC)c1cc(NC2CCC(N)C2)n2nccc2n1 (centres undefined) + CCn1c(-c2cccnc2C(C)OC)c2c3cc(ccc31)N1CCOC(CC(NC(=O)C(C(C)C)N(C)C(=O)C3(F)CCN(C(=O)C#CC(C)(C)N(C)C)CC3)C(=O)N3CCCC(N3)C(=O)OCC(C)(C)C2)C1
- IC50 (second compound 0.000949 µM): 1.88 µM
- IC50 (second compound 0.003 µM): 1.81 µM
- IC50 (second compound 0.00949 µM): 1.8 µM
- IC50 (second compound 0.03 µM): 1.9 µM
- IC50 (second compound 0.0949 µM): 1.66 µM
- IC50 (second compound 0.3 µM): 1.46 µM
- viability, T/C [1]: 82.4%
- viability, T/C [2]: 104%
- viability, T/C [3]: 100%
- viability, T/C [4]: 94.6%
- viability, T/C [5]: 13.2%
- viability, T/C [6]: 12.6%
- viability, T/C [7]: 106%
- viability, T/C [8]: 88.4%
- viability, T/C [9]: 100%
- viability, T/C [10]: 81.5%
- viability, T/C [11]: 20.3%
- viability, T/C [12]: 9.28%
- viability, T/C [13]: 82.2%
- viability, T/C [14]: 82.4%
- viability, T/C [15]: 111%
- viability, T/C [16]: 87.9%
- viability, T/C [17]: 13.3%
- viability, T/C [18]: 10.4%
- viability, T/C [19]: 86.7%
- viability, T/C [20]: 90.8%
- viability, T/C [21]: 97.6%
- viability, T/C [22]: 90.5%
- viability, T/C [23]: 17.7%
- viability, T/C [24]: 12.2%
- viability, T/C [25]: 89.2%
- viability, T/C [26]: 83.1%
- viability, T/C [27]: 86.8%
- viability, T/C [28]: 78.8%
- viability, T/C [29]: 13.3%
- viability, T/C [30]: 11.5%
- viability, T/C [31]: 85.3%
- viability, T/C [32]: 77%
- viability, T/C [33]: 85.2%
- viability, T/C [34]: 68.3%
- viability, T/C [35]: 12.6%
- viability, T/C [36]: 11%
